Results as given in patent EP1243271A1, “NASAL DROPS CONTAINING FUSED PYRIDAZINE DERIVATIVES” (Takeda Chemical Industries, Ltd., priority 1999, dated 2001).
Structures can show the parent of a compound that is named as a salt.

The compounds below were run on Male Hartley guinea pigs (assay: Effect on histamine-induced increases in microvascular permeability in skin in guinea pigs). Conditions: Cavia porcellus; 3 mg/kg oral administration 1 hour before histamine; guinea pig skin.
Type: in vivo
Experimental: Male Hartley guinea pigs weighing about 500 g were used. After the dorsal hair was shaved under ether anesthesia, 1 ml of a 2.5% pontamine sky blue solution was injected intravenously, and then 0.1 ml of histamine at 3 µg/ml was injected intradermally into 2 sites (left and right) in the back. Thirty minutes after the injection of histamine, animals were fainted by knocking in the head, decapitated and killed by bleeding, after which the skin of the back was removed. The long and short diameters (mm) of each blue spot were measured and multiplied; the mean product was taken as the vascular permeability index. Test compounds were suspended in a 5% gum arabic solution and orally administered in a volume of 0.2 ml/100 g body weight at 1 hour before histamine administration. Animals in the control group received the same volume of a 5% gum arabic solution. Equation 1 Inhibition (%) of histamine-induced increases in microvascular permeability in skin = 100 × (1-vascular permeability index in the presence of drug/vascular permeability index in control group) [formula]
With c1ccc(C(OC2CCN(CCCNc3ccc4ncnn4n3)CC2)c2ccccc2)cc1 [Reference Example B6, 6-[3-[4-(diphenylmethoxy)piperidino]-propylamino][1,2,4]triazolo[1,5-b]pyridazine] the inhibition in vivo at 3 mg/kg was 91%. c1ccc(C(OC2CCN(CCCCNc3ccc4ncnn4n3)CC2)c2ccccc2)cc1 [Reference Example B12, 6-[4-[4-(diphenylmethoxy)piperidino]-butylamino][1,2,4]triazolo[1,5-b]pyridazine] showed an inhibition in vivo at 3 mg/kg of 91%. Work on O=C(CCN1CCC(OC(c2ccccc2)c2ccccc2)CC1)Nc1ccc2ncnn2n1 [Reference Example B18, 3-[4-(diphenylmethoxy)piperidino]-N-([1,2,4]triazolo[1,5-b]pyridazin-6-yl)propionamide] yielded an inhibition in vivo at 3 mg/kg of 91%. Compound Cc1nc2ccc(NCCCN3CCC(OC(c4ccccc4)c4ccccc4)CC3)nn2n1 [Reference Example B20, 6-[3-[4-(diphenylmethoxy)piperidino]-propylamino]-2-methyl[1,2,4]triazolo[1,5-b]pyridazine] has an inhibition in vivo at 3 mg/kg of 92%. For Cc1nc2ccc(OCCCN3CCC(OC(c4ccccc4)c4ccccc4)CC3)nn2n1 [Reference Example B21, 6-[3-[4-(diphenylmethoxy)piperidino]propoxy]-2-methyl[1,2,4]triazolo[1,5-b]pyridazine], the inhibition in vivo at 3 mg/kg was 91%. c1ccc(C(c2ccccc2)N2CCN(CCCCCCNc3ccc4ncnn4n3)CC2)cc1 [Reference Example B37, 6-[6-[4-(diphenylmethyl)-1-piperazinyl]-hexylamino][1,2,4]triazolo[1,5-b]pyridazine] showed an inhibition in vivo at 3 mg/kg of 92%. With COc1cn2nc(OCCCN3CCC(OC(c4ccccc4)c4ccccc4)CC3)ccc2n1 [Reference Example B41, 6-[3-[4-(diphenylmethoxy)piperidino]propoxy]-2-methoxyimidazo[1,2-b]pyridazine] the inhibition in vivo at 3 mg/kg was 92%. CC(C)(C(=O)O)c1cn2nc(OCCCN3CCC(OC(c4ccccc4)c4ccccc4)CC3)ccc2n1 [Reference Example B45, 2-[6-[3-[4-(diphenylmethoxy)piperidino]-propoxy]imidazo[1,2-b]pyridazin-2-yl]-2-methylpropionic acid] was tested, and the inhibition in vivo at 3 mg/kg was 91%.

What follows are compounds tested on Guinea Pig Eosinophils (assay: Suppression of LTB4-induced chemotactic reaction of guinea pig eosinophils). Conditions: Cavia porcellus, Eosinophil, test drug 1 × 10^-5 M, LTB4 10^-8 M, read-out: Suppression Rate (%).
Type: cell-based, guinea pigs
Experimental: To male Hartley guinea pigs, 2 ml of equine serum (Bio-Whittaker, Inc.) was intraperitoneally administered once weekly for 8 consecutive weeks. At 48 hours after final administration, 75 ml of physiological saline was intraperitoneally injected, after which the recovered solution was centrifuged at 400 × g for 5 minutes. The resulting sediment was suspended in 5 ml of Percoll solution (density d=1.07) and layered on top of the discontinuous density layer of Percoll solution (density d=1.112, 5 ml; d=1.095, 10 ml; d=1.090, 10 ml; d=1.085, 5 ml), followed by centrifugation at 1,000 × g for 25 minutes (20°C). The cell layer formed at the interface between density d= 1.112 and density d=1.095 was collected. Erythrocytes present in the collected cell sediment were removed by hypotonic treatment (suspended in water for […]).
The cell sediment was washed 3 times with Hanks' solution containing 10 mM Hepes (Dojin Kagaku) (Hanks-Hepes) and suspended in a Hanks-Hepes solution containing 2% human serum albumin (Wako Pure Chemical Industry or Sigma) (Hanks-Hepes-HSA) to a concentration of 5.56×10^6 cells/ml. Eosinophil purity was 90%, viability was over 98%.
To a 24-well culture dish, which serves as a lower chamber, 600 µl of Hanks-Hepes-HSA solution containing LTB4 (final concentration 10^-8 M, Cascade Biochemical Ltd.), was transferred, followed by incubation at 37°C for 30 minutes in a carbon dioxide incubator. Separately, 200 µl of eosinophil suspension (5×10^6 cells/ml), previously incubated at 37°C for 15 minutes, was added to Chemotaxicell (polycarbonate membrane, pore size 3 µm, thickness 10 µm), which serves as an upper chamber, after the upper chamber was attached to the 24-well culture dish. After 2 hours of reaction in the carbon dioxide incubator, the Chemotaxicell was removed; 60 µl of 2% (w/v) EDTA solution in physiological saline was added to the liquid in the lower chamber. After ice-cooling, the cells migrating into the inner solution of the lower chamber were counted using a blood cell counter [Coulter Counter (trade name)]. The test drug, dissolved in N,N-dimethylformamide (DMF), was added to both the upper and lower chambers to a final concentration of 10^-5 M. Equation 2 Chemotactic reaction suppression rate = [1-(number of migrating cells in the presence of drug/number of migrating cells in the absence of drug)] × 100 [formula] suppression rates of LTB4 -induced chemotactic reaction by test drug (1 × 10^-5 M concentration) were calculated.
c1ccc(C(OC2CCN(CCCOc3ccc4ncnn4n3)CC2)c2ccccc2)cc1 [Reference Example B2, 6-[3-[4-(diphenylmethoxy)piperidino]propoxy]-[1,2,4]triazolo[1,5-b]pyridazine fumarate] was tested, and the inhibition at 10 µM was 54%. For c1ccc(C(OC2CCN(CCCNc3ccc4ncnn4n3)CC2)c2ccccc2)cc1 [Reference Example B6, 6-[3-[4-(diphenylmethoxy)piperidino]-propylamino][1,2,4]triazolo[1,5-b]pyridazine], the inhibition at 10 µM was 64%. For Cc1nc2ccc(NCCCN3CCC(OC(c4ccccc4)c4ccccc4)CC3)nn2n1 [Reference Example B20, 6-[3-[4-(diphenylmethoxy)piperidino]-propylamino]-2-methyl[1,2,4]triazolo[1,5-b]pyridazine], the inhibition at 10 µM was 61%. CC(C)(C)c1nc2ccc(NCCCN3CCC(OC(c4ccccc4)c4ccccc4)CC3)nn2n1 [Reference Example B34, 2-tert-butyl-6-[3-[4-(diphenylmethoxy)-piperidino]propylamino][1,2,4]triazolo[1,5-b]pyridazine fumarate] showed an inhibition at 10 µM of 50%. With c1ccc(C(OC2CCN(CCCCCCNc3ccc4ncnn4n3)CC2)c2ccccc2)cc1 [Reference Example B35, 6-[6-[4-(diphenylmethoxy)piperidino]-hexylamino][1,2,4]triazolo[1,5-b]pyridazine] the inhibition at 10 µM was 52%. For COC(=O)c1nc2ccc(NCCCN3CCC(OC(c4ccccc4)c4ccccc4)CC3)nn2n1 [Reference Example B36, methyl 6-[3-[4-(diphenylmethoxy)piperidino]-propylamino][1,2,4]triazolo[1,5-b]pyridazine-2-carboxylate], the inhibition at 10 µM was 64%. For Cc1cc2ncnn2nc1OCCOCCN1CCN(C(c2ccccc2)c2ccccc2)CC1 [Reference Example B47, 6-[2-[2-[4-(diphenylmethyl)-1-piperazinyl]-ethoxy]ethoxy]-7-methyl[1,2,4]triazolo[1,5-b]pyridazine], the inhibition at 10 µM was 54%. Cc1cc2ncnn2nc1OCCCCCCN1CCN(C(c2ccccc2)c2ccccc2)CC1 [Reference Example B51, 6-[6-[4-(diphenylmethyl)-1-piperazinyl]hexyloxy]-7-methyl[1,2,4]triazolo[1,5-b]pyridazine dihydrochloride] showed an inhibition at 10 µM of 80%. With CC(C)c1cc2ncnn2nc1SCCOCCN1CCN(C(c2ccccc2)c2ccccc2)CC1 [Reference Example B59, 6-[2-[2-[4-(diphenylmethyl)-1-piperazinyl]-ethoxy]ethylthio]-7-isopropyl[1,2,4]triazolo[1,5-b]pyridazine dihydrochloride] the inhibition at 10 µM was 54%. CC(C)c1cc2ncnn2nc1OCCOCCN1CCN(C(c2ccccc2)c2ccccc2)CC1 [Reference Example B61, 6-[2-[2-[4-(diphenylmethyl)-1-piperazinyl]-ethoxy]ethoxy]-7-isopropyl[1,2,4]triazolo[1,5-b]pyridazine] gave an inhibition at 10 µM of 50%. In the case of CC(C)(C)c1cc2ncnn2nc1OCCOCCN1CCN(C(c2ccccc2)c2ccccc2)CC1 [Reference Example B62, 7-tert-butyl-6-[2-[2-[4-(diphenylmethyl)-1-piperazinyl]ethoxy]ethoxy][1,2,4]triazolo[1,5-b]pyridazine dihydrochloride], the inhibition at 10 µM was 52%.
